The target of assay [1] is T1, CXCR3 (Homo sapiens, UniProt P49682).
T1 sequence (P49682 1-368): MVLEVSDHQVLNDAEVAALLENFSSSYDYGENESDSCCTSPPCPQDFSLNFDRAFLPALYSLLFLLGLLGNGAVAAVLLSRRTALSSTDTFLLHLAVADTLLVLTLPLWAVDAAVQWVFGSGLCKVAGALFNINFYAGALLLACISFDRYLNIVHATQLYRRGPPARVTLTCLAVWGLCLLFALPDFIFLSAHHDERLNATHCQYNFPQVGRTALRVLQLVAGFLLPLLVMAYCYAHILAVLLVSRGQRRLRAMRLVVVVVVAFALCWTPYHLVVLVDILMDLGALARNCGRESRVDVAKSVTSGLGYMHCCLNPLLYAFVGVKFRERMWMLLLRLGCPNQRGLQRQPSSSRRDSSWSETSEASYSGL
Put plainly: biochemical. In kind it is binding. On the set-up: expressed in transfected cells; host or cells: CHO cells (membrane preparation). Here is the method: a) CXCR3 Membrane Binding Assay
A ligand binding assay is used to identify inhibitors of I-TAC binding to CXCR3 expressing membranes. Cell membranes are prepared from CHO cells transfected with human CXCR3. The binding of the ^125I labeled CXCR3 ligand e.g. I-TAC (CXCL11) to CXCR3 is assessed using the Scintillation Proximity Assay (SPA) technology (Amersham Pharmacia Biotech). Buffer or serial dilutions of compound are incubated for 2 hours at room temperature with labeled CXCR3 ligand (e.g. I-TAC), CXCR3 expressing membranes and WGA coated PVT beads. The plates are then centrifuged and counted in a Topcount (Packard) instrument. The data are reported as the concentration of compound required to achieve 50% inhibition of ^125I ligand binding.

In assay [2] the target is T1, CXCR3. The assay can be described thus: cell-based. Also on record: expressed in transfected cells; host or cells: L1.2 cells (mouse pre-B cell line). As for the experimental part: b) CXCR3 Functional Assay—Ca^2+ Mobilization
CXCR3 ligand-induced Ca^2+ mobilization is assessed in CXCR3 transfected L1.2 cells (a mouse pre B cell line). For this, cells are loaded with the Ca^2+-sensitive fluorochrome Fluo-4 (Molecular Probes). After washing, the cells are pre-incubated with low molecular weight inhibitors for 2 h at room temperature. The transient increase in intracellular Ca^2+ after the addition of the CXCR3 ligand (e.g. I-TAC) is monitored in a fluorescence image plate reader (FLIPR) instrument. The inhibition of CXCR3 ligand induced Ca^2+ mobilization in the presence of CXCR3 antagonists is reported as IC50 values i.e. the concentration of compound which reduces the maximal Ca^2+ response to 50%.

For assay [3], the target named is T1, CXCR3. Put plainly: CXCR3 functional assay - chemotaxis. In kind it is cell-based. Also on record: expressed in transfected cells; host or cells: L1.2 cells (mouse pre-B cell line). The settings on record: CXCR3 transfected L-1.2 cells; I-TAC; 4 h at 37° C.; read-out: IC50, concentration which leads to a reduction of migrated cells by 50%. As for the experimental part:
c) CXCR3 Functional Assay—Chemotaxis
The directed cell migration induced by CXCR3 ligands e.g. I-TAC is assessed using 96-well disposable chemotaxis chambers (Multiscreen MIC, Costar) with polycarbonate membranes containing pores of 5 μm diameter. Chemokine (e.g. I-TAC) is placed in the bottom well of the chamber and cells (e.g. CXCR3 transfected L-1.2 cells) are placed in the top compartment of the chemotaxis chamber. Cell migration across the porous membrane is allowed for 4 h at 37° C. Cells migrated from the top compartment to the bottom compartment are quantified by flow cytometry. When LMW inhibitors are tested, compounds are added to both compartments at the identical concentrations; Serial dilutions of compounds are tested to assess their inhibitory effect on CXCR3 dependent cell migration. The concentration of LMW CXCR3 inhibitors which leads to a reduction of migrated cells by 50% is reported as IC50. In this assay, the compounds of formula I have an IC50 value from 1 μM-1 nM.

Setting [4] is: membranes of CHO cells transfected with human CXCR3, 125I I-TAC (CXCL11), 2 hours at room temperature, read-out: IC50, concentration of compound required to achieve 50% inhibition of 125I ligand binding.
The mark [5] stands for this setting: CXCR3 transfected L1.2 cells (mouse pre B cell line), CXCR3 ligand (e.g. I-TAC), pre-incubation 2 h at room temperature, read-out: IC50, concentration of compound which reduces the maximal Ca2+ response to 50%.

SMILES strings stand for the structures.

On to `O=C([C@@H]1C=C2c3cccc4[nH]cc(c34)C[C@H]2N(C(=O)Nc2ccccc2F)C1)N1CCCC1` [Example 59], for which the figures for the IC50 in assay [1] (setting [4]) and in assay [2] (setting [5]) were 43 nM and 20 nM, respectively.
As for `CC(C)OC(=O)Cn1cc2c3c(cccc31)C1=C[C@@H](C(=O)N3CCCC3)CN(C(=O)Nc3ccccc3)[C@@H]1C2` [Example 79, [(6aR,9R)-7-Phenylcarbamoyl-9-(pyrrolidine-1-carbonyl)-6a,7,8,9-tetrahydro-6H-indolo[4,3-fg]quinolin-4-yl]-acetic acid isopropyl ester], the IC50 stood at 145 nM in assay [1] and 53 nM in assay [2].
Take `O=C([C@@H]1C=C2c3cccc4[nH]cc(c34)C[C@H]2N(C(=O)Nc2ccccc2)C1)N1CCC1` [Example 23]: the figures for the IC50 in assay [1] (setting [4]) and in assay [2] (setting [5]) were 61 nM and 8 nM, respectively.
With `O=C([C@@H]1C=C2c3cccc4[nH]cc(c34)C[C@H]2N(C(=O)Nc2ccccc2)C1)N1CCOCC1` [Example 43], the IC50 in assay [1] came to 23 nM; in assay [2], 16 nM; in assay [3], 75 nM.

Source of the values: patent US7666877B2, “Ergoline derivatives” (priority 2005, dated 2010).
